# Measurements as given in the supplement of paper PMC10307832.
# Legend:
# Assay in all cases: relative viability (nuclei count vs DMSO), 5 days (fraction); higher = more cells survive
# IU1-47 + Tozasertib = compound: CC1=CC(=C(N1C2=CC=C(C=C2)Cl)C)C(=O)CN3CCCCC3 [IU1-47] + Cc1cc(Nc2cc(N3CCN(C)CC3)nc(Sc3ccc(NC(=O)C4CC4)cc3)n2)n[nH]1 [Tozasertib] (partner 0.1 µM)
# Summary of the method: (§1)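 For relative viability, nuclei counts in treated wells were divided by those in vehicle wells. Lung cancer cell lines had been pin-tool dosed in 1536-well plates the day after seeding and cultured for 5 days, then fixed and stained in one step (final 0.05% Triton X-100, 1% formaldehyde, 1 ug/ml Hoechst) and imaged at 4×. Doses were one drug alone or a fixed anchor-drug dose plus five library-drug doses (not always all listed) in √10 steps, and values are duplicate-plate medians.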
# FG-4592 + Navitoclax = compound: Cc1nc(C(=O)NCC(=O)O)c(O)c2ccc(Oc3ccccc3)cc12 [FG-4592] + CC1(C)CCC(c2ccc(Cl)cc2)=C(CN2CCN(c3ccc(C(=O)NS(=O)(=O)c4ccc(N[C@H](CCN5CCOCC5)CSc5ccccc5)c(S(=O)(=O)C(F)(F)F)c4)cc3)CC2)C1 [Navitoclax] (partner 0.5 µM)
# Summary of the method: as §1
# FG-4592 + Crizotinib = compound: Cc1nc(C(=O)NCC(=O)O)c(O)c2ccc(Oc3ccccc3)cc12 [FG-4592] + C[C@@H](Oc1cc(-c2cnn(C3CCNCC3)c2)cnc1N)c1c(Cl)ccc(F)c1Cl [Crizotinib] (partner 1 µM)
# Summary of the method: as §1
# FG-4592 + Pemetrexed = compound: Cc1nc(C(=O)NCC(=O)O)c(O)c2ccc(Oc3ccccc3)cc12 [FG-4592] + Nc1nc2[nH]cc(CCc3ccc(C(=O)N[C@@H](CCC(=O)O)C(=O)O)cc3)c2c(=O)[nH]1 [Pemetrexed] (partner 0.2 µM)
# Summary of the method: as §1
cell line,measurement,setting,value
NCI-H838,relative viability,IU1-47 + Tozasertib; first compound 0.08 µM,0.268
same,relative viability,IU1-47 + Tozasertib; first compound 0.253 µM,0.28
same,relative viability,IU1-47 + Tozasertib; first compound 0.8 µM,0.297
same,relative viability,IU1-47 + Tozasertib; first compound 2.53 µM,0.301
same,relative viability,IU1-47 + Tozasertib; first compound 8 µM,0.248
same,relative viability,FG-4592 + Navitoclax; first compound 0.08 µM,1.27
same,relative viability,FG-4592 + Navitoclax; first compound 0.253 µM,1.09
same,relative viability,FG-4592 + Navitoclax; first compound 0.8 µM,1.09
same,relative viability,FG-4592 + Navitoclax; first compound 2.53 µM,1.2
same,relative viability,FG-4592 + Navitoclax; first compound 8 µM,1.11
same,relative viability,FG-4592 + Crizotinib; first compound 0.08 µM,0.795
same,relative viability,FG-4592 + Crizotinib; first compound 0.253 µM,0.799
same,relative viability,FG-4592 + Crizotinib; first compound 0.8 µM,0.962
same,relative viability,FG-4592 + Crizotinib; first compound 2.53 µM,0.941
same,relative viability,FG-4592 + Crizotinib; first compound 8 µM,0.904
same,relative viability,FG-4592 + Pemetrexed; first compound 0.08 µM,0.257
same,relative viability,FG-4592 + Pemetrexed; first compound 0.253 µM,0.279
same,relative viability,FG-4592 + Pemetrexed; first compound 0.8 µM,0.227
same,relative viability,FG-4592 + Pemetrexed; first compound 2.53 µM,0.244
same,relative viability,FG-4592 + Pemetrexed; first compound 8 µM,0.253
A-427,relative viability,IU1-47 + Tozasertib; first compound 0.08 µM,0.201
same,relative viability,IU1-47 + Tozasertib; first compound 0.253 µM,0.208
same,relative viability,IU1-47 + Tozasertib; first compound 0.8 µM,0.236
same,relative viability,IU1-47 + Tozasertib; first compound 8 µM,0.212
same,relative viability,FG-4592 + Navitoclax; first compound 0.08 µM,0.829
same,relative viability,FG-4592 + Navitoclax; first compound 0.253 µM,0.739
same,relative viability,FG-4592 + Navitoclax; first compound 0.8 µM,0.802
same,relative viability,FG-4592 + Navitoclax; first compound 2.53 µM,1.08
same,relative viability,FG-4592 + Navitoclax; first compound 8 µM,0.914
same,relative viability,FG-4592 + Crizotinib; first compound 0.08 µM,0.801
same,relative viability,FG-4592 + Crizotinib; first compound 0.253 µM,0.899
same,relative viability,FG-4592 + Crizotinib; first compound 0.8 µM,0.923
same,relative viability,FG-4592 + Crizotinib; first compound 2.53 µM,0.933
same,relative viability,FG-4592 + Crizotinib; first compound 8 µM,1.01
same,relative viability,FG-4592 + Pemetrexed; first compound 0.08 µM,0.874
same,relative viability,FG-4592 + Pemetrexed; first compound 0.253 µM,0.96
same,relative viability,FG-4592 + Pemetrexed; first compound 0.8 µM,0.895
same,relative viability,FG-4592 + Pemetrexed; first compound 2.53 µM,0.986
same,relative viability,FG-4592 + Pemetrexed; first compound 8 µM,0.902
LCLC-97TM1,relative viability,IU1-47 + Tozasertib; first compound 0.08 µM,0.217
same,relative viability,IU1-47 + Tozasertib; first compound 0.253 µM,0.235
same,relative viability,IU1-47 + Tozasertib; first compound 0.8 µM,0.251
same,relative viability,IU1-47 + Tozasertib; first compound 2.53 µM,0.358
same,relative viability,IU1-47 + Tozasertib; first compound 8 µM,0.198
same,relative viability,FG-4592 + Navitoclax; first compound 0.08 µM,0.396
same,relative viability,FG-4592 + Navitoclax; first compound 0.253 µM,0.489
same,relative viability,FG-4592 + Navitoclax; first compound 0.8 µM,0.306
same,relative viability,FG-4592 + Navitoclax; first compound 8 µM,0.496
same,relative viability,FG-4592 + Crizotinib; first compound 0.08 µM,0.347
same,relative viability,FG-4592 + Crizotinib; first compound 0.253 µM,0.342
same,relative viability,FG-4592 + Crizotinib; first compound 0.8 µM,0.372
same,relative viability,FG-4592 + Crizotinib; first compound 8 µM,0.435
same,relative viability,FG-4592 + Pemetrexed; first compound 0.08 µM,0.189
same,relative viability,FG-4592 + Pemetrexed; first compound 0.253 µM,0.152
same,relative viability,FG-4592 + Pemetrexed; first compound 2.53 µM,0.145
same,relative viability,FG-4592 + Pemetrexed; first compound 8 µM,0.171
PC-3 [JPC-3],relative viability,IU1-47 + Tozasertib; first compound 0.08 µM,0.913
same,relative viability,IU1-47 + Tozasertib; first compound 0.253 µM,0.903
same,relative viability,IU1-47 + Tozasertib; first compound 0.8 µM,0.922
same,relative viability,IU1-47 + Tozasertib; first compound 2.53 µM,0.851
same,relative viability,IU1-47 + Tozasertib; first compound 8 µM,0.773
same,relative viability,FG-4592 + Navitoclax; first compound 0.08 µM,0.778
same,relative viability,FG-4592 + Navitoclax; first compound 0.253 µM,0.823
same,relative viability,FG-4592 + Navitoclax; first compound 0.8 µM,0.829
same,relative viability,FG-4592 + Navitoclax; first compound 2.53 µM,0.875
same,relative viability,FG-4592 + Navitoclax; first compound 8 µM,0.859
same,relative viability,FG-4592 + Crizotinib; first compound 0.08 µM,1
same,relative viability,FG-4592 + Crizotinib; first compound 0.253 µM,0.905
same,relative viability,FG-4592 + Crizotinib; first compound 0.8 µM,1.12
same,relative viability,FG-4592 + Crizotinib; first compound 2.53 µM,0.98
same,relative viability,FG-4592 + Crizotinib; first compound 8 µM,0.988
same,relative viability,FG-4592 + Pemetrexed; first compound 0.08 µM,1.09
same,relative viability,FG-4592 + Pemetrexed; first compound 0.253 µM,1.02
same,relative viability,FG-4592 + Pemetrexed; first compound 2.53 µM,1.19
same,relative viability,FG-4592 + Pemetrexed; first compound 8 µM,1.05
BEN,relative viability,IU1-47 + Tozasertib; first compound 0.08 µM,0.499
same,relative viability,IU1-47 + Tozasertib; first compound 0.253 µM,0.444
same,relative viability,IU1-47 + Tozasertib; first compound 0.8 µM,0.49
same,relative viability,IU1-47 + Tozasertib; first compound 2.53 µM,0.631
same,relative viability,IU1-47 + Tozasertib; first compound 8 µM,0.506
same,relative viability,FG-4592 + Navitoclax; first compound 0.08 µM,0.0578
same,relative viability,FG-4592 + Navitoclax; first compound 0.253 µM,0.0857
same,relative viability,FG-4592 + Navitoclax; first compound 0.8 µM,0.0654
same,relative viability,FG-4592 + Navitoclax; first compound 2.53 µM,0.0822
same,relative viability,FG-4592 + Navitoclax; first compound 8 µM,0.0636
same,relative viability,FG-4592 + Crizotinib; first compound 0.08 µM,0.729
same,relative viability,FG-4592 + Crizotinib; first compound 0.253 µM,0.745
same,relative viability,FG-4592 + Crizotinib; first compound 0.8 µM,0.743
same,relative viability,FG-4592 + Crizotinib; first compound 2.53 µM,0.803
same,relative viability,FG-4592 + Crizotinib; first compound 8 µM,0.594
same,relative viability,FG-4592 + Pemetrexed; first compound 0.08 µM,0.548
same,relative viability,FG-4592 + Pemetrexed; first compound 0.253 µM,0.649
same,relative viability,FG-4592 + Pemetrexed; first compound 0.8 µM,0.592
same,relative viability,FG-4592 + Pemetrexed; first compound 2.53 µM,0.822
same,relative viability,FG-4592 + Pemetrexed; first compound 8 µM,0.726
NCI-H1666,relative viability,IU1-47 + Tozasertib; first compound 0.08 µM,0.563
same,relative viability,IU1-47 + Tozasertib; first compound 0.253 µM,0.548
same,relative viability,IU1-47 + Tozasertib; first compound 0.8 µM,0.593
same,relative viability,IU1-47 + Tozasertib; first compound 2.53 µM,0.575
same,relative viability,IU1-47 + Tozasertib; first compound 8 µM,0.595
same,relative viability,FG-4592 + Navitoclax; first compound 0.08 µM,1.01
same,relative viability,FG-4592 + Navitoclax; first compound 0.253 µM,0.674
same,relative viability,FG-4592 + Navitoclax; first compound 0.8 µM,1.07
same,relative viability,FG-4592 + Navitoclax; first compound 2.53 µM,0.905
same,relative viability,FG-4592 + Navitoclax; first compound 8 µM,0.879
same,relative viability,FG-4592 + Crizotinib; first compound 0.08 µM,0.993
same,relative viability,FG-4592 + Crizotinib; first compound 0.253 µM,0.903
same,relative viability,FG-4592 + Crizotinib; first compound 0.8 µM,0.829
same,relative viability,FG-4592 + Crizotinib; first compound 2.53 µM,0.944
same,relative viability,FG-4592 + Crizotinib; first compound 8 µM,0.728
same,relative viability,FG-4592 + Pemetrexed; first compound 0.08 µM,0.771
same,relative viability,FG-4592 + Pemetrexed; first compound 0.253 µM,0.836
same,relative viability,FG-4592 + Pemetrexed; first compound 0.8 µM,0.932
same,relative viability,FG-4592 + Pemetrexed; first compound 2.53 µM,0.834
same,relative viability,FG-4592 + Pemetrexed; first compound 8 µM,0.722
LC-2-ad,relative viability,IU1-47 + Tozasertib; first compound 0.08 µM,0.465
same,relative viability,IU1-47 + Tozasertib; first compound 0.253 µM,0.396
same,relative viability,IU1-47 + Tozasertib; first compound 0.8 µM,0.465
same,relative viability,IU1-47 + Tozasertib; first compound 2.53 µM,0.444
same,relative viability,IU1-47 + Tozasertib; first compound 8 µM,0.377
same,relative viability,FG-4592 + Navitoclax; first compound 0.08 µM,0.489
same,relative viability,FG-4592 + Navitoclax; first compound 0.253 µM,0.465
same,relative viability,FG-4592 + Navitoclax; first compound 0.8 µM,0.329
same,relative viability,FG-4592 + Navitoclax; first compound 2.53 µM,0.458
same,relative viability,FG-4592 + Navitoclax; first compound 8 µM,0.503
same,relative viability,FG-4592 + Crizotinib; first compound 0.08 µM,0.433
same,relative viability,FG-4592 + Crizotinib; first compound 0.253 µM,0.412
same,relative viability,FG-4592 + Crizotinib; first compound 0.8 µM,0.48
same,relative viability,FG-4592 + Crizotinib; first compound 2.53 µM,0.508
same,relative viability,FG-4592 + Crizotinib; first compound 8 µM,0.486
same,relative viability,FG-4592 + Pemetrexed; first compound 0.08 µM,0.29
same,relative viability,FG-4592 + Pemetrexed; first compound 0.253 µM,0.29
same,relative viability,FG-4592 + Pemetrexed; first compound 0.8 µM,0.269
same,relative viability,FG-4592 + Pemetrexed; first compound 2.53 µM,0.26
same,relative viability,FG-4592 + Pemetrexed; first compound 8 µM,0.288
SK-LU-1,relative viability,IU1-47 + Tozasertib; first compound 0.08 µM,0.316
same,relative viability,IU1-47 + Tozasertib; first compound 0.253 µM,0.361
same,relative viability,IU1-47 + Tozasertib; first compound 0.8 µM,0.309
same,relative viability,IU1-47 + Tozasertib; first compound 2.53 µM,0.318
same,relative viability,IU1-47 + Tozasertib; first compound 8 µM,0.292
same,relative viability,FG-4592 + Navitoclax; first compound 0.08 µM,0.72
same,relative viability,FG-4592 + Navitoclax; first compound 0.253 µM,0.554
same,relative viability,FG-4592 + Navitoclax; first compound 0.8 µM,0.959
same,relative viability,FG-4592 + Navitoclax; first compound 8 µM,0.777
same,relative viability,FG-4592 + Crizotinib; first compound 0.08 µM,0.806
same,relative viability,FG-4592 + Crizotinib; first compound 0.253 µM,0.731
same,relative viability,FG-4592 + Crizotinib; first compound 0.8 µM,0.912
same,relative viability,FG-4592 + Crizotinib; first compound 8 µM,0.968
same,relative viability,FG-4592 + Pemetrexed; first compound 0.08 µM,0.949
same,relative viability,FG-4592 + Pemetrexed; first compound 0.253 µM,0.842
same,relative viability,FG-4592 + Pemetrexed; first compound 0.8 µM,1.05
same,relative viability,FG-4592 + Pemetrexed; first compound 2.53 µM,1.06
same,relative viability,FG-4592 + Pemetrexed; first compound 8 µM,1.05
